The record followed here is patent publication US11459325B2, “Heterocyclic compound” (Takeda Pharmaceutical Company Limited, priority 2018, dated 2022).

The assay relates to GBA mutant human fibroblasts GM008760. The experiment in a line: Glucosylceramide lowering assay. It counts as cell-based. As to conditions: Homo sapiens, Fibroblast, 96 h; 10 μM test compound, 4 days culture; GlcCer (C16:0)/Cer (C16:0) molar ratio of test compound group relative to DMSO control group x100; smaller value = glucosylceramide lowering. The procedure:
Glucosylceramide Lowering Assay
Using GBA mutant human fibroblasts containing mutated glucosylceramidase, the effect of test compounds on glucosylceramide reduction was evaluated.
GBA mutant human fibroblasts GM008760 (Coriel Institute) were seeded in a 96-well multiwell plate at a density of 5,000 cells/100 μL culture solution/well. GlutaMAX (Thermo Fishcer Scientific), penicillin-streptomycin, and Minimum Essential Media (Thermo Fishcer Scientific) supplemented with 15% fetal bovine serum were used as a culture solution. After culturing for 2 days, a 10 mM DMSO solution of the test compound diluted with the culture solution was added to a 96-well plate by 100 μL to adjust a final test compound concentration to 10 μM. After culturing the cells for 4 days in the presence of the test compound, the culture solution was removed, and the cells adhered to the 96-well plate were washed with a phosphate buffer (ThermoFisher Scientific, product number 14190-144). A solvent composed of 50% ethanol and 50% isopropanol was added to the 96-well plate by 100 μL, and the intracellular lipids were dissolved by pipetting. A solution prepared by dissolving N-Octadecanoyl-D35-psychosine (50 ng/mL, Matreya LLC Inc.) as an internal standard in 50% ethanol and 50% isopropanol was added to the sample in an equal volume, and 2.5 μL of the centrifuged supernatant was used as the test compound group.
In the same manner as above, a control group was prepared by using DMSO instead of the 10 mM DMSO solution of the test compound.
For the test compound group and the control group, molar concentrations of glucosylceramide [GlcCer (C16:0)] and ceramide [Cer (C16:0)] were quantified using Rapidfire-MS/MS (API-5000, Turbo-ESI, SRM), and the glucosylceramide lowering effect of the test compound group relative to the control group was evaluated by the following formula. (GlcCer/Cer of test compound group)/(GlcCer/Cer of control group)×100 wherein GlcCer/Cer is the ratio of the molar concentration of glucosylceramide to that of ceramide.
In this test, when the numerical value obtained by the above calculation formula is small, glucosylceramide is metabolized to ceramide by the test compound, or the synthesis of glucosylceramide from ceramide is inhibited by the test compound, that is, it can be said that the test compound has a glucosylceramide lowering effect.
As to `Cc1cn(C)c(=O)c2c(C(=O)N3CCC3c3ccccc3)cn(C)c12` (stereo not drawn) [Example 83, 1,5,7-trimethyl-3-((2-phenylazetidin-1-yl)carbonyl)-1,5-dihydro-4H-pyrrolo[3,2-c]pyridin-4-one], the activity at 10 µM amounted to 49%.

With `COc1ccccc1-n1cc(C)c2c(c(C(=O)NC3CCCCC3)cn2C)c1=O` [Example 107, N-cyclohexyl-5-(2-methoxyphenyl)-1,7-dimethyl-4-oxo-4,5-dihydro-1H-pyrrolo[3,2-c]pyridine-3-carboxamide], the activity at 10 µM stood at 50%.

Take `COc1ccccc1-n1cc(C)c2c(c(C(=O)Nc3ccccc3)cn2C)c1=O` [Example 108, 5-(2-methoxyphenyl)-1,7-dimethyl-4-oxo-N-phenyl-4,5-dihydro-1H-pyrrolo[3,2-c]pyridine-3-carboxamide]: the activity at 10 µM stood at 67%.

With `Cc1cn(C)c(=O)c2c(C(=O)N3CC4CC4(c4cccc(Cl)c4)C3)cn(C)c12` (stereo not drawn) [Example 118, 3-((1-(3-chlorophenyl)-3-azabicyclo[3.1.0]hex-3-yl)carbonyl)-1,5,7-trimethyl-1,5-dihydro-4H-pyrrolo[3,2-c]pyridin-4-one], the activity at 10 µM is 59%.

As to `Cc1cn(C)c(=O)c2c(C(=O)N3CC4CC4(c4ccc(Cl)c(Cl)c4)C3)cn(C)c12` (stereo not drawn) [Example 120, 3-((1-(3,4-dichlorophenyl)-3-azabicyclo[3.1.0]hex-3-yl)carbonyl)-1,5,7-trimethyl-1,5-dihydro-4H-pyrrolo[3,2-c]pyridin-4-one], the activity at 10 µM amounted to 50%.

`Cc1cn(C)c(=O)c2c(C(=O)N3CC4CC4(c4cccc(Cl)c4Cl)C3)cn(C)c12` (stereo not drawn) [Example 121, 3-((1-(2,3-dichlorophenyl)-3-azabicyclo[3.1.0]hex-3-yl)carbonyl)-1,5,7-trimethyl-1,5-dihydro-4H-pyrrolo[3,2-c]pyridin-4-one]: the activity at 10 µM is 68%.

With `Cc1cn(C)c(=O)c2c(C(=O)N3CC4CC4(c4cc(Cl)cc(Cl)c4)C3)cn(C)c12` (stereo not drawn) [Example 122, 3-((1-(3,5-dichlorophenyl)-3-azabicyclo[3.1.0]hex-3-yl)carbonyl)-1,5,7-trimethyl-1,5-dihydro-4H-pyrrolo[3,2-c]pyridin-4-one], the activity at 10 µM came out at 54%.

As to `Cc1cn(C)c(=O)c2c(C(=O)N3CC4CC4(c4cc(Cl)ccc4Cl)C3)cn(C)c12` (stereo not drawn) [Example 123, 3-((1-(2,5-dichlorophenyl)-3-azabicyclo[3.1.0]hex-3-yl)carbonyl)-1,5,7-trimethyl-1,5-dihydro-4H-pyrrolo[3,2-c]pyridin-4-one], the activity at 10 µM came out at 47%.

As to `Cc1cn(C)c(=O)c2c(C(=O)N3CC4CC4(c4ccc(F)cc4)C3)cn(C)c12` (stereo not drawn) [Example 124, 3-((1-(4-fluorophenyl)-3-azabicyclo[3.1.0]hex-3-yl)carbonyl)-1,5,7-trimethyl-1,5-dihydro-4H-pyrrolo[3,2-c]pyridin-4-one], the activity at 10 µM was 56%.

Consider `Cc1cn(C)c(=O)c2c(C(=O)N3CC4CC4(c4ccccc4F)C3)cn(C)c12` (stereo not drawn) [Example 126, 3-((1-(2-fluorophenyl)-3-azabicyclo[3.1.0]hex-3-yl)carbonyl)-1,5,7-trimethyl-1,5-dihydro-4H-pyrrolo[3,2-c]pyridin-4-one], for which the activity at 10 µM was 61%.

As for `COc1ccc(C23CC2CN(C(=O)c2cn(C)c4c(C)cn(C)c(=O)c24)C3)cc1` (stereo not drawn) [Example 127, 3-((1-(4-methoxyphenyl)-3-azabicyclo[3.1.0]hex-3-yl)carbonyl)-1,5,7-trimethyl-1,5-dihydro-4H-pyrrolo[3,2-c]pyridin-4-one], the activity at 10 µM stood at 65%.

In the case of `Cc1cn(C)c(=O)c2c(C(=O)N3CC4CC4(c4ccc(OC(F)(F)F)cc4)C3)cn(C)c12` (stereo not drawn) [Example 130, 1,5,7-trimethyl-3-((1-(4-(trifluoromethoxy)phenyl)-3-azabicyclo[3.1.0]hex-3-yl)carbonyl)-1,5-dihydro-4H-pyrrolo[3,2-c]pyridin-4-one], the activity at 10 µM worked out at 21%.

For `Cc1cn(C)c(=O)c2c(C(=O)N3CC4CC4(c4cccc(OC(F)(F)F)c4)C3)cn(C)c12` (stereo not drawn) [Example 131, 1,5,7-trimethyl-3-((1-(3-(trifluoromethoxy)phenyl)-3-azabicyclo[3.1.0]hex-3-yl)carbonyl)-1,5-dihydro-4H-pyrrolo[3,2-c]pyridin-4-one], the activity at 10 µM came to 63%.

As for `Cc1cn(C)c(=O)c2c(C(=O)N3CC4CC4(c4ccccc4C(F)(F)F)C3)cn(C)c12` (stereo not drawn) [Example 137, 1,5,7-trimethyl-3-((1-(2-(trifluoromethyl)phenyl)-3-azabicyclo[3.1.0]hex-3-yl)carbonyl)-1,5-dihydro-4H-pyrrolo[3,2-c]pyridin-4-one], the activity at 10 µM was 64%.

On to `Cc1cn(C)c(=O)c2c(C(=O)N3CC4CC4(c4ccc(C(F)(F)F)c(F)c4)C3)cn(C)c12` (stereo not drawn) [Example 138, 3-((1-(3-fluoro-4-(trifluoromethyl)phenyl)-3-azabicyclo[3.1.0]hex-3-yl)carbonyl)-1,5,7-trimethyl-1,5-dihydro-4H-pyrrolo[3,2-c]pyridin-4-one], for which the activity at 10 µM was 39%.

For the molecule `Cc1cn(C)c(=O)c2c(C(=O)N3CC4CC4(c4ccc(OC(F)(F)F)c(F)c4)C3)cn(C)c12` (stereo not drawn) [Example 139, 3-((1-(3-fluoro-4-(trifluoromethoxy)phenyl)-3-azabicyclo[3.1.0]hex-3-yl)carbonyl)-1,5,7-trimethyl-1,5-dihydro-4H-pyrrolo[3,2-c]pyridin-4-one], the activity at 10 µM was found to be 37%.

`Cc1cn(C)c(=O)c2c(C(=O)N3CC4CC4(c4cc(Cl)cc(C(F)(F)F)c4)C3)cn(C)c12` (stereo not drawn) [Example 140, 3-((1-(3-chloro-5-(trifluoromethyl)phenyl)-3-azabicyclo[3.1.0]hex-3-yl)carbonyl)-1,5,7-trimethyl-1,5-dihydro-4H-pyrrolo[3,2-c]pyridin-4-one]: the activity at 10 µM was found to be 49%.

`Cc1cn(C)c(=O)c2c(C(=O)N3CC4CC4(c4ccc(Cl)c(C(F)(F)F)c4)C3)cn(C)c12` (stereo not drawn) [Example 141, 3-((1-(4-chloro-3-(trifluoromethyl)phenyl)-3-azabicyclo[3.1.0]hex-3-yl)carbonyl)-1,5,7-trimethyl-1,5-dihydro-4H-pyrrolo[3,2-c]pyridin-4-one]: the activity at 10 µM was 47%.

`Cc1ccc(C23CN(C(=O)c4cn(C)c5c(C)cn(C)c(=O)c45)CC2C3(F)F)cc1` (stereo not drawn) [Example 146, 3-((6,6-difluoro-1-(4-methylphenyl)-3-azabicyclo[3.1.0]hex-3-yl)carbonyl)-1,5,7-trimethyl-1,5-dihydro-4H-pyrrolo[3,2-c]pyridin-4-one]: the activity at 10 µM is 65%.

For the molecule `Cc1cn(C)c(=O)c2c(C(=O)N3CC4CC4(c4ccccc4OC(F)(F)F)C3)cn(C)c12` (stereo not drawn) [Example 151, 1,5,7-trimethyl-3-((1-(2-(trifluoromethoxy)phenyl)-3-azabicyclo[3.1.0]hex-3-yl)carbonyl)-1,5-dihydro-4H-pyrrolo[3,2-c]pyridin-4-one], the activity at 10 µM was found to be 46%.

In the case of `Cc1cn(C)c(=O)c2c(C(=O)N3CCC4(c5ccc(Cl)cc5)C(C3)C4(F)F)cn(C)c12` (stereo not drawn) [Example 153, 3-((6-(4-chlorophenyl)-7,7-difluoro-3-azabicyclo[4.1.0]hept-3-yl)carbonyl)-1,5,7-trimethyl-1,5-dihydro-4H-pyrrolo[3,2-c]pyridin-4-one], the activity at 10 µM worked out at 60%.
